Assay results taken from US8865748B2, “Compounds and compositions for stabilizing hypoxia inducible factor-2 alpha as a method for treating cancer” (Akebia Therapeutics Inc., priority 2011, dated 2014).

Key:
VEGF [1] = test: VEGF production by human peripheral blood monocytes (ELISA, real-time PCR); assay type: cell-based; settings: FIG. 11C
Description: (§1) Human peripheral blood mononuclear cells (PBMCs) were isolated from fresh peripheral blood leukocyte source packs (American Red Cross, Columbus Ohio) by density gradient centrifugation over Lymphocyte Separation Medium (Cellgro). Monocytes were purified from total PBMCs by layering over FBS. Monocytes were cultured in endotoxin-free RPMI-1640 supplemented with 1% fetal bovine serum (FBS), 0.1% human serum albumin (HSA), and 10 μg/mL of the endotoxin inhibitor polymyxin B. In some experiments, freshly isolated monocytes were differentiated into macrophages by three-day culture in media containing 10% FBS, 1% PSA (penicillin G sodium, streptomycin sulfate, and amphotericin B), and 20 ng/mL M-CSF. Macrophages were serum-starved for 2 hours prior to stimulation. Monocytes or monocyte-derived macrophages were treated for 24 hours with 10 ng/mL GM-CSF, 10 μM disclosed HIF-2α stabilizer, or an equivalent volume of the vehicle controls (PBS or DMSO, respectively). Cell-free culture supernatants were harvested and analyzed for VEGF or sVEGFR-1 by ELISA (R&D Systems).
(§2) Human monocytes were left untreated or were stimulated with 100 ng/mL GM-CSF at normoxia or at 0.5% O2. At various time-points, cells were harvested in Trizol reagent (Invitrogen) and RNA was extracted in chloroform and then purified using the RNeasy Minikit (Qiagen). In murine studies, organs harvested at the time of euthanasia were flash-frozen in liquid nitrogen, pulverized in liquid nitrogen, and then dissolved in Trizol. cDNA was generated from 1 μg of RNA using the Superscript First Strand Synthesis System (Invitrogen) and used for real-time PCR using previously described primers and SYBR Green PCR Master Mix (Applied Biosciences), according to the manufacturer's instructions. Data were analyzed according to the comparative threshold method and normalized against the β-actin internal control transcript. Results are semi-quantitative and represent the fold difference in transcript levels in a particular sample as compared with levels in untreated cells from the same donor.
VEGF protein was undetectable in the supernatants of GM-CSF-stimulated monocytes, due to neutralization of VEGF by sVEGFR-1 (FIG. 11C).
Since monocyte production of VEGF was dependent on HIF-1α, the inventors herein determined whether selective stabilization of HIF-1α via inhibition of PHD2 would increase monocyte production of VEGF but not sVEGFR-1. In order to make such determination, human peripheral blood monocytes were stimulated with GM-CSF in the presence of a selective inhibitor of PHD2 which results in the stabilization of HIF-1α.

B16F10 melanoma tumors = test: Murine melanoma tumor model (B16F10 in C57BL/6 mice); assay type: in vivo
Description: Mice were injected with 1×10^5 B16F10 murine melanoma cells murine subcutaneously on the left flank. Once tumors become palpable (approximately 5 days), mice were randomly allocated to receive treatment with either: 20% polyethylene glycol (PEG) in 5% […] (vehicle control for the disclosed HIF-2α stabilizer) and PBS (vehicle control for GM-CSF), 20% PEG and GM-CSF (100 ng per mouse in a 50 μL volume), the disclosed HIF-2α stabilizer (17.5 mg/kg in a 100 μL volume) and PBS, or the disclosed HIF-2α stabilizer and GM-CSF (same doses). The PBS and GM-CSF were administered intratumorally, while the 20% PEG and the disclosed HIF-2α stabilizer were administered intraperitoneally. Mice were treated 3 times per week until tumors reached a size of 20 mm in any dimension (approximately 2.5 weeks), at which point mice were euthanized, in accordance with institutional policy. Tumor diameters were measured 3 times per week with calipers, and tumor volumes were calculated as follows: Tumor volume=0.5×[(large diameter)×(small diameter)^2].
6-8-week-old C57BL/6 mice were injected with 1×10^5 B16F10 murine melanoma cells murine subcutaneously on the left flank. Once tumors become palpable (approximately 5 days), mice were randomly allocated to receive treatment with either: 20% PEG-400 in 5% sucrose (vehicle for disclosed HIF-2α stabilizer) and PBS (vehicle for GM-CSF), 20% PEG-400 and GM-CSF (100 ng per mouse in a 50 μL volume), disclosed HIF-2α stabilizer (17.5 mg/kg mouse weight in a 100 μL volume) and PBS, or the disclosed HIF-2α stabilizer and GM-CSF (same concentrations). The disclosed HIF-2α stabilizer (or the vehicle control) was administered intraperitoneally, while GM-CSF (or the vehicle control) was administered intratumorally. Mice were treated […] 3 times per week until tumors reached a size of 20 mm in any dimension (approximately 2.5 weeks), at which point mice were be euthanized, in accordance with institutional policy. Tumor diameters were measured 3 times per week with calipers, and tumor volumes will be calculated as follows: Tumor volume=0.5×[(large diameter)×(small diameter)^2]. For experiments analyzing the effect of neutralizing sVEGFR-1 in combination with disclosed HIF-2α stabilizer treatment, mice were treated intraperitoneally 3×/week with either disclosed HIF-2α stabilizer or vehicle control, and intratumorally with either 4 μg anti-VEGFR-1 neutralizing antibody (R&D Systems) or 4 μg polyclonal goat IgG isotype control (Santa Cruz Biotechnology) in a 50 μL volume. All protocols were approved by the Ohio State University Animal Care and Use Committee, and mice were treated in accordance with institutional guidelines for animal care.
The ANOVA test was used to compare independent measurements between multiple treatment groups. The data was log-transformed to normalize the variance across groups. P-values were adjusted using the Holm's procedure to conserve the type I error at 0.05 due to the multiple comparisons. For tumor growth data, changes in tumor volume over time were assessed via a longitudinal model. Tumor values were log-transformed, and estimated slopes (changes in tumor volume over time) were calculated with 95% confidence intervals. Estimated differences in tumor volume were calculated by a random-effects regression of the longitudinal data. For all analyses, p≦0.05 was considered statistically significant.
To confirm that the modulation of tumor growth and angiogenesis was due to sVEGFR-1 production in response to the disclosed HIF-2α stabilizer, mice were treated with the disclosed HIF-2α stabilizer in the presence or absence of an sVEGFR-1 neutralizing Ab.
6-8-week-old C57BL/6 mice or SCID mice were injected with 1×10^5 B16F10 murine melanoma cells or 1×10^6 A375 human melanoma cells, respectively, subcutaneously on the left flank. […]

sVEGFR-1 = sVEGFR-1 production by human peripheral blood monocytes (ELISA, real-time PCR); assay type: cell-based; settings: GM-CSF stimulation; FIG. 11D
Description: as §1
Human monocytes were left untreated or were stimulated with 100 ng/mL GM-CSF at normoxia or at 0.5% O2. At various time-points, cells were harvested in Trizol reagent (Invitrogen) and RNA was extracted in chloroform and then purified using the RNeasy Minikit (Qiagen). […] Data were analyzed according to the comparative threshold method and normalized against the β-actin internal control transcript. Results are semi-quantitative and represent the fold difference in transcript levels in a particular sample as compared with levels in untreated cells from the same donor.
Since monocyte production of VEGF was dependent on HIF-1α, the inventors herein determined whether selective stabilization of HIF-1α via inhibition of PHD2 would increase monocyte production of VEGF but not sVEGFR-1. […]

VEGF [2] = test: VEGF mRNA within B16F10 tumors (real-time PCR); assay type: in vivo, mice; settings: FIG. 13B; p=0.490
Description: as §2
6-8-week-old C57BL/6 mice were injected with 1×10^5 B16F10 murine melanoma cells murine subcutaneously on the left flank. […] Tumor diameters were measured 3 times per week with calipers, and tumor volumes will be calculated as follows: Tumor volume=0.5×[(large diameter)×(small diameter)^2]. […]

With “GM-CSF: granulocyte-macrophage colony-stimulating factor” the “VEGF production, transcript levels by real-time PCR” value (VEGF [1]; GM-CSF stimulation) was “increased”, the “VEGF protein in supernatants” value (VEGF [1]; GM-CSF-stimulated monocytes, ELISA detects free VEGF only) was “undetectable” and the “tumor growth (tumor volume)” value (B16F10 melanoma tumors; FIG. 3, stabilizer 17 mg/kg I.P., GM-CSF 100 ng per mouse I.T., 3 times per week, vs. PBS control) was “reduction in tumor volume”. The “tumor volume reduction, GM-CSF administered I.T. vs. I.P.” value (B16F10 melanoma tumors; FIG. 4, stabilizer 17 mg/kg delivered I.P. in all cases, no control group) was “greater reduction of tumor volume”, the “average tumor volumes vs. vehicle controls” value (B16F10 melanoma tumors; day 16 of treatment, GM-CSF 100 ng/mouse intratumoral or stabilizer 17.5 mg/kg intraperitoneal, 3x/week, each p<0.001) was “significantly smaller” and the “monocyte production of sVEGFR-1” value (sVEGFR-1) was “induced”. The “levels of intratumoral VEGF over vehicle control-treated mice” value (VEGF [2]) was “failed to increase”.
